Laboratory results from patent publication US20140343105A1, “NOVEL ORALLY ADMINISTERED DABIGATRAN FORMULATION” (BOEHRINGER INGELHEIM INTERNATIONAL GMBH, priority 2012, published 2014).
In brackets after ≈: the same amount, converted by molar mass.

Columns and labels:
[1] = Solubility of the active ingredient (DS) in cyclodextrin solutions at various pH values (UV/VIS); assay type: physicochemical
Experimental: Dabigatranetexilat methanesulphonate is tested for its solubility in dependency of the presence of various cyclodextrins at various ph values as follows:
(§1) 2 ml Eppendorf tubes can be filled with about 1.8 ml aqueous solution with a selected pH value. The volume used for the screening is 1.8 ml. The molar amount of cyclodextrin (CD) in the given volume is calculated for the given CD concentration. For a given molar ratio of active ingredient DS/CD the amount of active ingredient (DS) is calculated. Normally, a molar ratio of DS/CD=1/1 is targeted: 1 mol DS and 1 mol CD. As precise as possible, the calculated amount of DS is weighted into the tube exactly. The actual amount is reported.
(§2) According to the actual amount of DS the necessary volume of CD solution is calculated. As precise as possible, the requested volume of CD solution is pipetted into the tube. The actual volume pipetted is reported. The solution in the tube is placed on an Eppendorf Vario shaker. The solution is intensively shaken by means of ultrasound (Hielscher Ultrasound Processor) for 10 seconds at the maximum. It is payed attention to heat generation and overheating has to be avoided.
(§3) The tube is shaken for 1 hour in the Eppendorf Thermomixer at the given temperature and at 800 rpm. Subsequently, the pH value is checked and the given pH value adjusted accordingly, if necessary. The tube is shaken for 24 hours in the Eppendorf Thermomixer at the given temperature and at 800 rpm.
Eppendorf tubes are centrifuged for about 15 minutes at the given temperature, but at 40° C. at the maximum (max. temperature of the centrifuge), and 14,000 rpm. In case no clear supernatant is obtained centrifugation is repeated with adjusted rpm (revolutions per minute) and time. […]
(§4) The clear supernatant or filtrate is used for the analysis of the concentration. The pH value of the clear solution is analysed. The DS concentration of the clear solution is measured by UV/VIS spectroscopy (e.g., Hewlett-Packard 8453 UV/Visible Spectrophotometer).

[2] = Solubility of DS in presence of hydrophilic polymers (CMC-Na) and cyclodextrins; assay type: physicochemical
Experimental: as §1, §2, §3
Eppendorf tubes are centrifuged for about 15 minutes at the given temperature, but at 40° C. at the maximum (max. temperature of the centrifuge), and 14,000 rpm. In case no clear supernatant is obtained centrifugation is repeated with adjusted rpm (revolutions per minute) and time. In case the supernatant is not clear and a filtration step is necessary the content of the tube is sucked or poured into 2 ml single use syringe. The supernatant is filtered through a 0.2 μm filter (Pall GHP Acrodisc 13 mm Syringe Filter 0.2 μm pore size). About 2-3 drops of the solution are discarded. The rest of the volume is collected in a second tube. If temperatures above room temperature (about 22° C.) are given, filters and tubes have to be tempered at that temperature prior to use.
as §4
DS, especially Dabigatranetexilat methanesulphonate, is tested for its solubility in dependency of the presence of various hydrophilic polymers and various cyclodextrins whereby the hydrophilic polymer is added to the aqueous solution before adding the DS.

effect of cyclodextrins on solubility of the active ingredient ([1]; all cyclodextrins tested, various pH values): significantly improve the solubility
solubility at 24 h ([1]; aqueous α-cyclodextrin solution, aqueous with cosolvent or surfactant or cyclodextrin, thermodynamic from solid, 10% (w/v) α-CD solution at pH 3): ~43 mg/mL (≈ 68.5 mM)
increase of the solubility of the DS and of the drug load DS/CD ([2]; addition of 0.05% to 0.5% of CMC-Na, α-CD 10% (w/v)): up to 11%
complexation efficiency of the CD ([2]; addition of a hydrophilic polymer before adding the DS): significantly improved
solubility at 24 h ([2]; aqueous α-cyclodextrin solution with CMC-Na, aqueous with cosolvent or surfactant or cyclodextrin, thermodynamic from solid, 14% α-CD solution at pH 3 with 0.25% CMC-Na): ~67.3 mg/mL
SMILES: CCCCCCOC(=O)NC(=N)c1ccc(NCc2nc3cc(C(=O)N(CCC(=O)OCC)c4ccccn4)ccc3n2C)cc1 [DS, dabigatran etexilate]
mol α-CD necessary to complex 1 mol API ([1]; α-CD 10% (w/v)): About 1.7 mol
g α-CD to complex 1 g API ([2]; α-CD, CMC-Na added): ≈ 2.1 g
mol α-CD necessary to complex 1 mol API ([2]; α-CD, CMC-Na added): About 1.6 mol
